# From PubChem BioAssay AID1996
# Settings: buffer; pH 7.4; 200.0 µM
row,solubility kinetic [µg/mL],Structure (SMILES)
1,44.9,Cc1ccccc1-c1nc(S(=O)(=O)c2ccccc2)c(NCCCN2CCOCC2)o1
2,< 0.3,C=CCn1cccc(C(=O)Nc2ccc(C)c(Cl)c2)c1=O
3,5.1,O=C(NCC1CCCCC1)c1ccc([N+](=O)[O-])cc1
4,> 36.6,CCCc1c(O)nc(SCC(=O)O)[nH]c1=O
5,8.4,Cc1ccc(CC(=O)Nc2ccc(Cl)cn2)cc1
6,> 55.6,CSc1nc(SC(C)C(=O)O)c2c3c(sc2n1)COC(C)(C)C3 (stereo unspecified)
7,> 42.4,Cc1nnc(SCC(=O)NC2CCCCC2)[nH]c1=O
8,43.3,O=C(NCCCNC(=O)c1cccnc1)c1ccc(Cl)cc1
9,> 43.9,COc1ccc(C(=O)CSc2nccn2C)c(OC)c1
10,49.7,CS/C(=C(/C#N)S(=O)(=O)c1ccc(Cl)cc1)N1CCOCC1
11,> 43.8,Cc1cc[n+](CCc2ccccc2)cc1C.[Br-]
12,26.9,Cc1ccnc(NS(=O)(=O)c2ccc(Cl)nc2)c1
13,52.2,COc1ccccc1C(=O)N/C(=C\c1ccccc1)C(=O)NC(C)C(=O)O (stereo unspecified)
14,> 47.2,CCOc1ccc(C(=O)C(C)OC(=O)c2cnc(C)cn2)cc1 (stereo unspecified)
15,5,N#C/C(=C\c1ccc(Cl)cc1)C(=O)NC1CC1
16,17.7,COc1ccc2c(CCNC(N)=S)c[nH]c2c1
17,25.1,CSc1cccc(NC(N)=O)c1
18,4.5,Cc1ccc(O)c(Nc2ncnc3ccccc23)c1.Cl
19,> 41.8,Cc1ccnc(NC(=O)Cc2c(F)cccc2Cl)c1
20,18.3,Cc1cc(NC(=O)CSCc2ccccc2C)no1
21,27,COc1cc2c(cc1OC)CN(C(=O)c1cc(Cl)nc(Cl)c1)CC2
22,44.2,COc1ccc(CCC(=O)Nc2ccc(Cn3ccnc3)cc2)cc1
23,> 38.7,Nc1c(C(=O)N2CCCCCC2)oc2ccccc12
24,> 49,CC(=O)N1Cc2ccccc2CC1C(=O)NCc1ccccc1F (stereo unspecified)

row,solubility kinetic [µg/mL],Structure (SMILES)
1,> 42.8,CN1C(=O)c2ccccc2Sc2ccc(C(=O)O)cc21
2,42,O=C(Nc1ccc(N2CCOCC2)nc1)c1ccccc1Cl
3,> 35.5,CCC(C)(C)NC(=S)Nc1ccccc1C
4,1.7,CCOc1ccc(-c2nc[nH]c2[N+](=O)[O-])cc1
5,< 0.1,Cc1cc(C)nc(Nc2nc3ccccc3s2)n1
6,5.6,O=C(Nc1ccccc1N1CCOCC1)c1ccc2c(c1)OCCO2
7,> 43.8,Cc1cc(OC(=O)c2ccccc2F)c([N+](=O)[O-])c(=O)[nH]1
8,> 46.1,Cn1cccc1/C=N\NC(=O)c1cncc(Br)c1
9,0.6,O=C(Nc1nc(-c2ccc(F)cc2)cs1)c1cccnc1
10,> 36.2,Nc1nnc(SCc2ccccc2F)s1
11,0.7,CC(=O)c1c(C)[nH]c(C(=O)Nc2ccc(Cl)cc2F)c1C
12,< 0.7,Cc1ccc(C(=O)Oc2ccc(N3C(=O)CCC3=O)c(C)c2)cc1
13,6.1,O=c1c2cc(NC(=S)N3CCCC3)ccc2nc2n1CCCCC2
14,> 35.1,Cc1csc(Nc2ccc(C(=O)O)cc2)n1
15,> 37.7,O=C(CSc1ncccn1)N1CCCCCC1
16,58.6,O=C(CSc1ncnc2scc(-c3ccccc3)c12)NC1CCS(=O)(=O)C1 (stereo unspecified)
17,> 35.4,CC(C)Cn1cnc2c1c(=O)n(C)c(=O)n2C
18,> 39.7,CCC1CCC/C1=N\NC(=O)c1ccc(Cl)cc1 (stereo unspecified)
19,> 30.3,N#Cc1cnn(-c2ccc(F)cc2)c1N
20,10.1,O=C1COc2ccc(C(=O)COC(=O)c3ccccc3F)cc2N1
21,34.8,O=C(NC1CCCCC1)c1ccc2c(c1)OCCO2
22,> 71.2,C=CCN(c1ccccc1OC)S(=O)(=O)c1cccc(C(=O)OCC(=O)N2CCOCC2)c1
23,> 34.2,O=C(c1ccncc1)c1ccc([N+](=O)[O-])cc1
24,0.6,O=C(NCc1ccccc1)Nc1cccc2ccccc12

row,solubility kinetic [µg/mL],Structure (SMILES)
1,> 39.1,N#CCc1cccnc1Sc1ccc(Cl)cc1
2,< 0.6,CCOc1ccc(C(=O)Nc2ccc3c(c2)OCCO3)cc1
3,28.2,CN1C(=O)C(CCC(=O)O)NC1=S (stereo unspecified)
4,31.1,COc1ccc(S(=O)(=O)N2CCNCC2)cc1
5,> 57.2,COc1ccc(S(=O)(=O)N[C@@H](CSCc2ccccc2)C(=O)O)cc1
6,1.5,O=C(Nc1ccc(Nc2ccccc2)cc1)c1ccccc1F
7,> 51.5,O=C(CCNC(=O)c1ccco1)Nc1ccccc1N1CCOCC1
8,1.1,O=C(COc1ccccc1Cl)N1CCc2ccccc21
9,2,CC(=O)c1c(C)[nH]c(C(=O)Nc2cccc(C)c2C)c1C
10,> 52.1,CCOC(=O)c1ccc(NC(=O)CC2SC3=NCCN3C2=O)cc1 (stereo unspecified)
11,10.8,COc1ccc(NC(=O)c2ccc3c(c2)NC(=O)CS3)cc1
12,> 43.1,O=C(CS(=O)(=O)c1ccc(F)cc1)N1CCOCC1
13,2.4,COc1ccc(OCC(=O)Nc2ccc3c(c2)C(=O)NC3=O)cc1
14,39.4,Cc1cccc(NC(=S)N2CCCN(c3ncccc3[N+](=O)[O-])CC2)c1
15,18.6,COc1ccc(S(=O)(=O)NCCc2c[nH]c3ccc(Cl)cc23)cc1
16,> 36.6,O=C1CCCN1c1ccc(N2CCCC2=O)cc1
17,36.5,COc1ccc(C(=O)COC(=O)c2sc(C)nc2C)cc1F
18,> 41.2,NC(=O)c1cc(S(=O)(=O)N2CCCCC2)cs1
19,> 58.7,O=C(NCCCN1CCCC1=O)c1cc(-c2ccc(F)cc2)nc2ccccc12
20,> 46.7,CCc1ccc(CN(C)C(=O)c2ccc3c(c2)OCCO3)cc1
21,> 45.5,O=C(CCS(=O)(=O)c1ccccc1)NCc1ccccc1
22,4.2,O=C(c1ccc(-c2ccc(Cl)cc2Cl)o1)N1CCOCC1
23,1,O=C(Nc1cccc(C(=O)Nc2ccccc2F)c1)c1ccccc1
24,41.6,COC(=O)c1cc(C)nc(Sc2ccccc2NC(C)=O)n1

row,solubility kinetic [µg/mL],Structure (SMILES)
1,> 49.4,O=C(O)CC1(CC(=O)Nc2cccc(C(F)(F)F)c2)CCCC1
2,> 49.9,COc1ccc(S(=O)(=O)NCCCN2CCOCC2)cc1F
3,0.6,O=[N+]([O-])c1ccc(N2CCN(c3ccccc3)CC2)nc1
4,42.6,CC(NC(=O)CNC(=O)C1CCCCC1)c1cccc(Cl)c1 (stereo unspecified)
5,> 47.7,O=C(CCNC(=O)c1ccccc1Cl)NCc1cccnc1
6,10.4,NC(=O)NC(=O)COC(=O)/C=C/c1cccs1
7,34,O=C(NCc1ccccn1)Nc1ccc(Cl)cc1
8,> 62.8,CN(Cc1nc2ccccc2c(=O)[nH]1)C(=O)c1cccc(NC(=O)c2cccs2)c1
9,2.5,Cc1cccc(NC(=O)Nc2ccccc2)n1
10,> 49.1,COc1ccc(S(=O)(=O)n2c([N+](=O)[O-])cnc2C)cc1OC
11,19,Cc1cnc(C(=O)OCc2ccc(Br)cc2)cn1
12,0.7,COc1ccc(C(=O)Nc2nc(-c3ccccc3)c(C(C)=O)s2)c(OC)c1
13,> 43.1,O=C(CNC(=O)c1ccccc1F)NCc1ccncc1
14,> 50.2,O=C(COC(=O)c1ccc(Cl)nc1)Nc1ccc2c(c1)OCO2
15,36,C[n+]1c(-c2ccccc2)sc([S-])c1-c1ccccc1
16,5.1,O=C(OCc1c(F)cccc1Cl)c1cccnc1Cl
17,40.1,CC1CCCN(C(=O)COC(=O)c2cc(Br)ccc2O)C1 (stereo unspecified)
18,5.3,COc1ccc(CCNC(=O)COC(=O)/C=C/c2cc(OC)ccc2OC)cc1
19,2.2,Nc1ccccc1SCCS(=O)(=O)c1ccc(Cl)cc1
20,> 50.9,O=NN1CCN(c2ccncc2S(=O)(=O)N2CCCCC2)CC1
21,1.1,Cc1cc(C)c2c(CN3CCC(C)CC3)cc(=O)oc2c1C
22,32.8,Cc1nc(SCC(=O)N2CCOCC2)c2c3c(sc2n1)CCC3
23,0.3,Cc1ccc(C)c(OCCNc2ncccc2[N+](=O)[O-])c1
24,18.1,O=C(Nc1cccc(-c2cn3c(n2)SCC3)c1)c1ccc2c(c1)OCO2

row,solubility kinetic [µg/mL],Structure (SMILES)
1,4.2,O=C(NC1CC2CCCC(C1)N2C(=O)Nc1ccccc1)C1CC1 (stereo unspecified)
2,> 42.9,CC(CN1CCOCC1)OC(=O)c1ccccc1.Cl (stereo unspecified)
3,33.1,CC(C)(C)C(=O)CSc1nc(N)cc(=O)[nH]1
4,> 44.1,N#CC1(NC(=O)COC(=O)C2=COCCO2)CCCCC1
5,39.3,COc1ccc(C(=O)O/N=C(\N)Cc2ccc([N+](=O)[O-])cc2)c(OC)c1
6,45.7,COc1ccc(OC)c(C(C)NC(=O)C(C)Cc2ccccc2)c1 (stereo unspecified)
7,> 42.9,Clc1cccc(Cl)c1CO/N=C/c1cccs1
8,34.3,CN(C)c1ccc(C(=O)NCc2ccc3c(c2)CCO3)cc1
9,0.7,Cc1cc(C)cc(NC(=O)C2CCCN2C(=O)NC2CCCCC2)c1 (stereo unspecified)
10,> 56.3,CCOc1ccc(Br)cc1S(=O)(=O)NC1=NCCCCC1
11,7,Cc1cccc(Cc2cnc(NC(=O)C3=NCCN3)s2)c1
12,> 49.3,CN(CC(=O)Nc1ccc(F)c(F)c1F)C(=O)C1CCCCC1
13,41.5,O=C1N(c2ccccc2)C(=Nc2ccccc2)SC12CC2
14,10.1,COc1ccccc1CNC(=O)c1cc2ccccc2o1
15,2.9,Cc1cccc(N2CCN(C(=O)c3cccc(S(=O)(=O)N4CCCCC4)c3)CC2)c1C
16,30.4,CCCC(=O)Nc1ccc(S(=O)(=O)Nc2nccs2)cc1
17,41.9,COc1cccc(OCCNC(=O)c2ccc(C)cc2)c1
18,6.4,CC(C)(C)c1ccc(CSc2nc(N)cc(=O)[nH]2)cc1
19,1,CCOC(=O)c1c(NC(C)=O)sc(C(=O)NC2CCCC2)c1C
20,2.3,COc1ccc(N2CCN(C(=O)CN3c4cccc5cccc(c45)S3(=O)=O)CC2)cc1
21,> 46.7,Cc1cccc(N2C(S)=C(C#N)C(=O)NC2c2ccco2)c1 (stereo unspecified)
22,> 49.3,CSc1ccc(Cl)c(C(=O)OCC(=O)N2CCNC2=O)c1

row,Structure (SMILES),solubility kinetic [µg/mL]
1,O=c1c2ccccc2nc(-c2ccccc2F)n1-c1ccccc1,45.5
2,Cc1ccc(C(C)C)c(OCCCn2ccnc2C)c1.O=C(O)C(=O)O,51.2
3,COc1ccc(-n2c(CNCCc3ccc(C)cc3)nc3ccccc3c2=O)cc1,45.2
